Experimental data from patent publication US20130344026A1, “Dimeric Smac Mimetics” (priority 2009, published 2013).
Read-outs that look alike come from different tables or passages of the source.

System: PANC-1 cells
Assay: cell viability assay in PANC-1 cells (compound alone, + 100 ng/ml TNFa, + 300 ng/ml TRAIL)
Format: cell-based
Settings: Tables 6-10
[1] = Homo sapiens, PANC-1, compound alone, read-out: IC50 (μM) in cell viability assay in PANC-1 cells: Compound alone
[2] = with 100 ng/ml TNFa, read-out: IC50 (μM) in cell viability assay in PANC-1 cells: Compound + 100 ng/ml TNFa
[3] = with 300 ng/ml TRAIL, read-out: IC50 (μM) in cell viability assay in PANC-1 cells: Compound + 300 ng/ml TRAIL
[4] = compound alone, read-out: IC50 (μM) in cell viability assay in PANC-1 cells: Compound alone

| SMILES | IC50 [1] [µM] | IC50 [2] [µM] | IC50 [3] [µM] | IC50 [4] [µM] |
| --- | --- | --- | --- | --- |
| CN[C@@H](C)C(=O)N[C@H](C(=O)N1C[C@@H](NC(=O)c2cccc(C(=O)N[C@H]3C[C@@H](C(=O)NC4CCCc5c(OC)cccc54)N(C(=O)[C@@H](NC(=O)[C@H](C)NC)C(C)(C)C)C3)c2)C[C@H]1C(=O)NC1CCCc2c(OC)cccc21)C(C)(C)C (single isomer, unassigned) [Compound 46] | > 1 | 0.048 | 0.014 |  |
| CN[C@@H](C)C(=O)N[C@H](C(=O)N1C[C@@H](NC(=O)c2cccc(C(=O)N[C@H]3C[C@@H](C(=O)NC4CCCc5c(OC)cccc54)N(C(=O)[C@@H](NC(=O)[C@H](C)NC)C(C)(C)C)C3)c2)C[C@H]1C(=O)NC1CCCc2c(OC)cccc21)C(C)(C)C (single isomer, unassigned) [Compound 47] |  | 0.012 | 0.011 | > 1 |
| CN[C@@H](C)C(=O)N[C@H](C(=O)N1C[C@@H](NC(=O)c2cccc(C(=O)N[C@H]3C[C@@H](C(=O)N[C@@H]4CCCc5c(O)cccc54)N(C(=O)[C@@H](NC(=O)[C@H](C)NC)C(C)(C)C)C3)c2)C[C@H]1C(=O)N[C@@H]1CCCc2c(O)cccc21)C(C)(C)C (single isomer, unassigned) [Compound 60] | > 1 | 0.044 | 0.049 |  |
| CN[C@@H](C)C(=O)N[C@H](C(=O)N1C[C@@H](NC(=O)c2cccc(C(=O)N[C@H]3C[C@@H](C(=O)N[C@@H]4CCCc5cc(O)ccc54)N(C(=O)[C@@H](NC(=O)[C@H](C)NC)C(C)(C)C)C3)c2)C[C@H]1C(=O)N[C@@H]1CCCc2cc(O)ccc21)C(C)(C)C (single isomer, unassigned) [Compound 61] | > 1 | 0.324 | 0.439 |  |
| CN[C@@H](C)C(=O)N[C@H](C(=O)N1C[C@@H](NC(=O)c2cccc(C(=O)N[C@H]3C[C@@H](C(=O)N[C@@H]4CCCc5ccc(Br)cc54)N(C(=O)[C@@H](NC(=O)[C@H](C)NC)C(C)(C)C)C3)c2)C[C@H]1C(=O)N[C@@H]1CCCc2ccc(Br)cc21)C(C)(C)C (single isomer, unassigned) [Compound 62] | > 1 | 0.107 | 0.099 |  |
| CN[C@@H](C)C(=O)N[C@H](C(=O)N1C[C@@H](NC(=O)c2cccc(C(=O)N[C@H]3C[C@@H](C(=O)N[C@@H]4CCCc5ccc(Br)cc54)N(C(=O)[C@@H](NC(=O)[C@H](C)NC)C(C)(C)C)C3)c2)C[C@H]1C(=O)N[C@@H]1CCCc2ccc(Br)cc21)C(C)(C)C (single isomer, unassigned) [Compound 63] |  | 0.143 | 0.162 | > 1 |
| CN[C@@H](C)C(=O)N[C@H](C(=O)N1C[C@@H](NC(=O)c2cccc(C(=O)N[C@H]3C[C@@H](C(=O)NC4CCCc5ccc([N+](=O)[O-])cc54)N(C(=O)[C@@H](NC(=O)[C@H](C)NC)C(C)(C)C)C3)c2)C[C@H]1C(=O)NC1CCCc2ccc([N+](=O)[O-])cc21)C(C)(C)C (single isomer, unassigned) [Compound 64] | > 1 | 0.18 | 0.151 |  |
| CN[C@@H](C)C(=O)N[C@H](C(=O)N1C[C@@H](NC(=O)c2cccc(C(=O)N[C@H]3C[C@@H](C(=O)NC4CCOc5ccccc54)N(C(=O)[C@@H](NC(=O)[C@H](C)NC)C(C)(C)C)C3)c2)C[C@H]1C(=O)NC1CCOc2ccccc21)C(C)(C)C (single isomer, unassigned) [Compound 65] | > 1 | 0.265 | 0.328 |  |
| CN[C@@H](C)C(=O)N[C@H](C(=O)N1C[C@@H](NC(=O)c2cccc(C(=O)N[C@H]3C[C@@H](C(=O)NC4CCOc5ccccc54)N(C(=O)[C@@H](NC(=O)[C@H](C)NC)C(C)(C)C)C3)c2)C[C@H]1C(=O)NC1CCOc2ccccc21)C(C)(C)C (single isomer, unassigned) [Compound 66] |  | 0.012 | 0.013 | > 1 |
| CN[C@@H](C)C(=O)N[C@H](C(=O)N1C[C@@H](NC(=O)c2cccc(C(=O)N[C@H]3C[C@@H](C(=O)NC4CCSc5ccccc54)N(C(=O)[C@@H](NC(=O)[C@H](C)NC)C(C)(C)C)C3)c2)C[C@H]1C(=O)NC1CCSc2ccccc21)C(C)(C)C (single isomer, unassigned) [Compound 67] | > 1 | 0.191 | 0.22 |  |
| CN[C@@H](C)C(=O)N[C@H](C(=O)N1C[C@@H](NC(=O)c2cccc(C(=O)N[C@H]3C[C@@H](C(=O)NC4CCSc5ccccc54)N(C(=O)[C@@H](NC(=O)[C@H](C)NC)C(C)(C)C)C3)c2)C[C@H]1C(=O)NC1CCSc2ccccc21)C(C)(C)C (single isomer, unassigned) [Compound 68] |  | 0.029 | 0.019 | > 1 |
| CN[C@@H](C)C(=O)N[C@H](C(=O)N1C[C@@H](NC(=O)c2cccc(C(=O)N[C@H]3C[C@@H](C(=O)NC4CCCc5cccc(F)c54)N(C(=O)[C@@H](NC(=O)[C@H](C)NC)C(C)(C)C)C3)c2)C[C@H]1C(=O)NC1CCCc2cccc(F)c21)C(C)(C)C (single isomer, unassigned) [Compound 70] | > 1 | 0.0011 | 0.0033 |  |
| CN[C@@H](C)C(=O)N[C@H](C(=O)N1C[C@@H](NC(=O)c2cccc(C(=O)N[C@H]3C[C@@H](C(=O)NC4CCCc5cccc(F)c54)N(C(=O)[C@@H](NC(=O)[C@H](C)NC)C(C)(C)C)C3)c2)C[C@H]1C(=O)NC1CCCc2cccc(F)c21)C(C)(C)C (single isomer, unassigned) [Compound 71] |  | 0.005 | 0.0091 | > 1 |
| CN[C@@H](C)C(=O)N[C@H](C(=O)N1C[C@@H](NC(=O)c2cccc(C(=O)N[C@H]3C[C@@H](C(=O)NC4CCCc5cc(F)ccc54)N(C(=O)[C@@H](NC(=O)[C@H](C)NC)C(C)(C)C)C3)c2)C[C@H]1C(=O)NC1CCCc2cc(F)ccc21)C(C)(C)C (single isomer, unassigned) [Compound 72] | > 1 | 0.0018 | 0.0033 |  |
| CN[C@@H](C)C(=O)N[C@H](C(=O)N1C[C@@H](NC(=O)c2cccc(C(=O)N[C@H]3C[C@@H](C(=O)NC4CCCc5cc(F)ccc54)N(C(=O)[C@@H](NC(=O)[C@H](C)NC)C(C)(C)C)C3)c2)C[C@H]1C(=O)NC1CCCc2cc(F)ccc21)C(C)(C)C (single isomer, unassigned) [Compound 73] |  | 0.0698 | 0.073 | > 1 |
| CN[C@@H](C)C(=O)N[C@H](C(=O)N1C[C@@H](NC(=O)c2cccc(C(=O)N[C@H]3C[C@@H](C(=O)NC4CCCc5cc(Br)ccc54)N(C(=O)[C@@H](NC(=O)[C@H](C)NC)C(C)(C)C)C3)c2)C[C@H]1C(=O)NC1CCCc2cc(Br)ccc21)C(C)(C)C (single isomer, unassigned) [Compound 75] | > 1 | 0.018 | 0.013 |  |
| CC[C@@H](NC(=O)[C@@H]1C[C@H](NC(=O)c2cccc(C(=O)N[C@H]3C[C@@H](C(=O)N[C@H](CC)c4ccccc4)N(C(=O)[C@@H](NC(=O)[C@H](C)NC)C(C)(C)C)C3)c2)CN1C(=O)[C@@H](NC(=O)[C@H](C)NC)C(C)(C)C)c1ccccc1 [Compound 1] | > 1 | 0.0023 | 0.0019 |  |
| CC[C@@H](NC(=O)[C@@H]1C[C@H](NC(=O)c2cccc(C(=O)N[C@H]3C[C@@H](C(=O)N[C@H](CC)c4ccccc4)N(C(=O)[C@@H](NC(=O)[C@H](C)NC)C(C)(C)C)C3)c2)CN1C(=O)[C@@H](NC(=O)[C@H](C)NC)C(C)(C)C)c1ccccc1 [Compound 2] |  | 0.062 | 0.054 | > 1 |
| CN[C@@H](C)C(=O)N[C@H](C(=O)N1C[C@@H](NC(=O)c2cccc(C(=O)N[C@H]3C[C@@H](C(=O)NCCc4ccc(O)cc4)N(C(=O)[C@@H](NC(=O)[C@H](C)NC)C(C)(C)C)C3)c2)C[C@H]1C(=O)NCCc1ccc(O)cc1)C(C)(C)C [Compound 3] | > 1 | 0.5 | 0.42 |  |
| CN[C@@H](C)C(=O)N[C@H](C(=O)N1C[C@@H](NC(=O)c2cccc(C(=O)N[C@H]3C[C@@H](C(=O)NCCc4ccc(N)cc4)N(C(=O)[C@@H](NC(=O)[C@H](C)NC)C(C)(C)C)C3)c2)C[C@H]1C(=O)NCCc1ccc(N)cc1)C(C)(C)C [Compound 4] | > 1 | > 1 | 0.739 |  |
| CN[C@@H](C)C(=O)N[C@H](C(=O)N1C[C@@H](NC(=O)c2cccc(C(=O)N[C@H]3C[C@@H](C(=O)NCc4ccc(OC)c(O)c4)N(C(=O)[C@@H](NC(=O)[C@H](C)NC)C(C)(C)C)C3)c2)C[C@H]1C(=O)NCc1ccc(OC)c(O)c1)C(C)(C)C [Compound 5] | > 1 | 0.706 | 0.982 |  |
| CN[C@@H](C)C(=O)N[C@H](C(=O)N1C[C@@H](NC(=O)c2cccc(C(=O)N[C@H]3C[C@@H](C(=O)NCc4ccc(O)c(OC)c4)N(C(=O)[C@@H](NC(=O)[C@H](C)NC)C(C)(C)C)C3)c2)C[C@H]1C(=O)NCc1ccc(O)c(OC)c1)C(C)(C)C [Compound 6] | > 1 | 0.471 | 0.31 |  |
| CN[C@@H](C)C(=O)N[C@H](C(=O)N1C[C@@H](NC(=O)c2cccc(C(=O)N[C@H]3C[C@@H](C(=O)NCc4cccc5[nH]ccc45)N(C(=O)[C@@H](NC(=O)[C@H](C)NC)C(C)(C)C)C3)c2)C[C@H]1C(=O)NCc1cccc2[nH]ccc12)C(C)(C)C [Compound 7] | > 1 | 0.383 | 0.217 |  |
| CN[C@@H](C)C(=O)N[C@H](C(=O)N1C[C@@H](NC(=O)c2cccc(C(=O)N[C@H]3C[C@@H](C(=O)NCCc4ccc(S(N)(=O)=O)cc4)N(C(=O)[C@@H](NC(=O)[C@H](C)NC)C(C)(C)C)C3)c2)C[C@H]1C(=O)NCCc1ccc(S(N)(=O)=O)cc1)C(C)(C)C [Compound 8] | > 1 | > 1 | > 1 |  |
| CN[C@@H](C)C(=O)N[C@H](C(=O)N1C[C@@H](NC(=O)c2cccc(C(=O)N[C@H]3C[C@@H](C(=O)NCCc4ccc(O)c(O)c4)N(C(=O)[C@@H](NC(=O)[C@H](C)NC)C(C)(C)C)C3)c2)C[C@H]1C(=O)NCCc1ccc(O)c(O)c1)C(C)(C)C [Compound 9] | > 1 | > 1 | > 1 |  |
